Data reported in patent US6143766A, “Benzopyranone and quinolone inhibitors of ras farnesyl transferase” (Warner-Lambert Company, priority 2000, dated 2000).
Read-outs that look alike come from different tables or passages of the source.

Tests used:
[1] = test system: ras protein in ras-transformed cells; test: Mobility Shift Assay (ras farnesylation in ras-transformed cells); assay type: cell-based; conditions: 18-hour incubation, read-out: Mobility Shift MED
Protocol: Twenty-four hours after planting 2×10^6 ras-transformed cells per treatment condition, the farnesylation inhibitor is added at varying concentrations. Following an 18-hour incubation period, cells are lysed in phosphate-buffered saline containing 1% Triton X-100, 0.5% sodium deoxycholate, and 0.1% SDS (sodium dodecyl sulfate), pH 7.4 in the presence of several protease inhibitors (PMSF (phenylmethylsulfonylfluoride), antipain, leupeptin, pepstatin A, and aprotinin all at 1 μg/mL). Ras protein is immunoprecipitated from the supernatants by the addition of 3 μg v-H-ras Ab-2 (Y13-259 antibody from Oncogene Science, Cambridge, Mass.). After overnight immunoprecipitation, 30 μL of a 50% protein G-Sepharose slurry (Pharmacia, Uppsala, Sweden) is added followed by 45-minute incubation. Pellets are resuspended in 2X tris-glycine loading buffer (Novex, San Diego, Calif.) containing 5% mercaptoethanol and then denatured by 5 minutes boiling prior to electrophoresis on 14% Tris-glycine SDS gels. Using Western transfer techniques, proteins are transferred to nitrocellulose membranes followed by blocking in blocking buffer. Upon overnight incubation with primary antibody (pan-ras Ab-2 from Oncogene Science, Cambridge, Mass.), an antimouse HRP (horseradish peroxidase) conjugate secondary antibody (Amersham) is employed for detection of the ras protein. Blots are developed using ECL (enhanced chemiluminescence) techniques (Amersham, Arlington Heights, Ill.).

[2] = target: T1, rat FPT (Rattus norvegicus, UniProt Q02293+Q04631); test: PFT Inhibitory Activity (protein farnesyl transferase); assay type: biochemical; conditions: 30° C., 30 minutes
T1 construct: made in house; host or cells: Sf9 insect cells
Protocol: The protein farnesyl transferase (PFT) or farnesyl protein transferase (FPT) inhibitory activity of compounds of the present invention were assayed in HEPES buffer (pH 7.4) containing 5 mM potassium phosphate and 20 μM ZnCl2. The solution also contained 5 mM DTT (dithiothreitol), 5 mM MgCl2, and 0.1% PEG 8000. Assays were performed in 96-well plates (Wallec, Finland) and employed solutions composed of varying concentrations of a compound of the present invention in 10% DMSO (dimethylsulfoxide). Upon addition of both substrates, radiolabeled farnesyl pyrophosphate ([1^3 H], specific activity 15-30 Ci/mmol, final concentration 134 nM) and (biotinyl)-Ahe-Thr-Lys-Cys-Val-Ile-Met ([3aS[3a α, 4 β, 6a α]-hexahydro-2-oxo-1H-thieno[3,4-d]imidazole-5-pentanoicacid]-[7-aminoheptanoic acid]-Thr-Lys-Cys-Val-Ile-Met). Ahe is 7-aminoheptanoic acid, Thr is threonine, Lys is lysine, Cys is cysteine, Val is valine, Ile is isoleucine, and Met is methionine (final concentration 0.2 μM); the enzyme reaction was started by addition of SF9 affinity purified rat FPT. After incubation at 30° C. for 30 minutes, the reaction was terminated by diluting the reaction 2.5-fold with a stop buffer containing 1.5 M magnesium acetate, 0.2 M H3 PO4, 0.5% BSA (bovine serum albumin), and strepavidin beads (Amersham, Arlington Heights, Ill.) at a concentration of 1.3 mg/mL. After allowing the plate to settle for 30 minutes at room temperature, radioactivity was quantitated on a microBeta counter (Model 1450, Wallec, Finland). The assay was also carried out without 5 mM potassium phosphate.

[3] = test system: EJ-1 human bladder carcinoma; conditions: 100 mg/kg, xenografts in nude mice; cited from earlier work
[4] = test system: HT1080 human fibrosarcoma; conditions: 100 mg/kg, xenografts in nude mice; cited from earlier work
[5] = test system: human colon carcinoma; conditions: 100 mg/kg, xenografts in nude mice; cited from earlier work
[6] = test system: human lung carcinoma with K-ras mutation and p53 deletion; conditions: nude mice; cited from earlier work
[7] = test system: mammary and salivary carcinomas in ras transgenic mice; conditions: daily administration; cited from earlier work
[8] = HEPES buffer pH 7.4 with 5 mM potassium phosphate, read-out: IC50 (μM) Hepes + 5 mM Phosphate
[9] = HEPES buffer pH 7.4 without 5 mM potassium phosphate, read-out: IC50 (μM) Hepes

Row | IC50 [2, 8] | IC50 [2, 9] | Structure (SMILES) | minimal effective concentration [1] | other results
1 | 0.068 µM | 0.064 µM | Cn1c(=O)cc(-c2cccc(Cl)c2)c2cc(OC(Cn3ccnc3)c3ccccc3)ccc21 (stereo not drawn) [Example 1, 4-(3-Chloro-phenyl)-6-(2-imidazol-1-yl-1-phenyl-ethoxy)-1-methyl-1H-quinolin-2-one] | 1 µM | 
2 | 0.99 µM | 0.7 µM | Cn1c(=O)cc(-c2cccc(Cl)c2)c2ccc(OC(Cn3ccnc3)c3ccccc3)cc21 (stereo not drawn) [Example 2, 4-(3-Chloro-phenyl)-7-(2-imidazol-1-yl-1-phenyl-ethoxy)-1-methyl-1H-quinolin-2-one] | > 1 µM | 
3 | 3.6 µM | 9.8 µM | Cn1c(=O)cc(-c2cccc(Cl)c2)c2cc(OCc3c[nH]cn3)ccc21 [Example 3, 4-(3-Chloro-phenyl)-6-(1H-imidazol-4-ylmethoxy)-1-methyl-1H-quinolin-2-one] |  | 
4 | 1.8 µM | 1.7 µM | Cn1cncc1C(Oc1ccc2c(c1)c(-c1cccc(Cl)c1)cc(=O)n2C)c1ccccc1 (stereo not drawn) [Example 4, 4-(3-Chloro-phenyl)-1-methyl-6-[(3-methyl-3H-imidazol-4-yl)-phenyl-methoxy]-1H-quinolin-2-one] |  | 
5 | 0.8 µM | 0.74 µM | O=c1cc(-c2ccccc2)c2ccc(OC(Cn3ccnc3)c3ccccc3)cc2o1 (stereo not drawn) [Example 5, 7-(2-Imidazol-1-yl-1-phenyl-ethoxy)-4-phenyl-chromen-2-one] | 0.2 µM | 
6 | 0.32 µM | 0.29 µM | O=c1cc(-c2cccc(Cl)c2)c2ccc(OC(Cn3ccnc3)c3ccccc3)cc2o1 (stereo not drawn) [Example 6, 4-(3-Chloro-phenyl)-7-(2-imidazol-1-yl-1-phenyl-ethoxy)-chromen-2-one] | 1 µM | 
7 | 1.4 µM | 0.5 µM | Cc1cccc(-c2cc(=O)oc3cc(OC(Cn4ccnc4)c4ccccc4)ccc23)c1 (stereo not drawn) [Example 7, 7-(2-Imidazol-1-yl-1-phenyl-ethoxy)-4-m-tolyl-chromen-2-one] |  | 
8 | 0.92 µM | 0.98 µM | Cc1ccccc1-c1cc(=O)oc2cc(OC(Cn3ccnc3)c3ccccc3)ccc12 (stereo not drawn) [Example 8, 7-(2-Imidazol-1-yl-1-phenyl-ethoxy)-4-o-tolyl-chromen-2-one] |  | 
9 | 1.6 µM | 1.8 µM | O=c1cc(-c2ccc(Cl)cc2)c2ccc(OC(Cn3ccnc3)c3ccccc3)cc2o1 (stereo not drawn) [Example 9, 4-(4-Chloro-phenyl)-7-(2-imidazol-1-yl-1-phenyl-ethoxy)-chromen-2-one] |  | 
10 | 0.29 µM | 0.14 µM | O=c1cc(-c2ccccc2Cl)c2ccc(OC(Cn3ccnc3)c3ccccc3)cc2o1 (stereo not drawn) [Example 10, 4-(2-Chloro-phenyl)-7-(2-imidazol-1-yl-1-phenyl-ethoxy)-chromen-2-one] | > 0.2 µM | 
11 | 0.52 µM | 0.67 µM | Cc1ccc(-c2cc(=O)oc3cc(OC(Cn4ccnc4)c4ccccc4)ccc23)cc1 (stereo not drawn) [Example 11, 7-(2-imidazol-1-yl-1-phenyl-ethoxy)-4-p-totyl-chromen-2-one] | 1 µM | 
12 | 0.64 µM | 0.63 µM | C=CCc1c(OC(Cn2ccnc2)c2ccccc2)ccc2c(-c3ccccc3)cc(=O)oc12 (stereo not drawn) [Example 12, 8-allyl-7-(2-imidazol-1-yl-1-phenyl-ethoxy)-4-phenyl-chromen-2-one] | > 1 µM | 
13 |  |  | COC(=O)[C@H](CCSC)NC(=O)[C@H](/C=C\[C@@H](/C=C/[C@@H](N)CS)C(C)C)Cc1ccccc1 [Example B1086] |  | tumor growth inhibition [3]: inhibit tumor growth; tumor growth inhibition [4]: inhibit tumor growth; tumor growth inhibition [5]: inhibit tumor growth
14 |  |  | CSCC[C@H](NC(=O)c1ccc(NC[C@@H](N)CS)cc1-c1ccccc1)C(=O)O [FT1276] |  | block of tumor growth [6]: selectively block tumor growth
15 |  |  | CC[C@H](C)[C@@H](CO[C@@H](Cc1ccccc1)C(=O)N[C@@H](CCS(C)(=O)=O)C(=O)OC(C)C)NC[C@@H](N)CS [L-744,832] |  | tumor regression [7]: caused tumor regression
